The text below walks through data of US20220339285A1, “DISSACHARIDE FORMULATIONS FOR CONTROLLED DRUG RELEASE” (TECHNICAL UNIVERSITY OF DENMARK, priority 2019, published 2022).

Data set [1] is described as follows: Tested solubility of APIs in carbohydrate ester gels (Example 21). Conditions: in the gel formulations listed for each API in Table 8; maximal solubility may be higher than tested.
Experimental: Compositions are given in weight percent (or weight ratio) and each compound is weighed into one vial. The mixture is placed in an ultrasonication bath at 70-80° C. for 1-2 hours and occasionally vortexed to generate homogenous solutions that is subsequently stored at 4° C. until further use. Afterwards, all active pharmaceutical ingredients (APIs) are incorporated into the gels proportionally by adding gel on top of freeze-dried APIs or combinations of freeze-dried APIs. The gel is subjected to magnetic stirring at 40-50° C. until the API or combination of APIs is completely dissolved. The gel-API mixture is transferred and stored in sealed vials at room temperature or at 4° C. Certain gel-API mixtures may be stored at −20° C.
A short description of data set [2]: In vitro release of DOX base from SuBen and LOIB gels, fluorescence (Example 33). In kind it is physicochemical. Conditions: 7 days at 37° C. The protocol: The vials were incubated at 37° C. After 7 days, 1 mL of PBS was taken and analysed by fluorescence spectroscopy.
Fluorescence spectroscopy: Fluorescence measurements were taken by a Tecan fluorescence microplate reader using 96-well, transparent Nunc plates. Sample volume was 200 μL.

Data set [3] in a line: Experimentally obtained drug solubilities in gels. In kind it is physicochemical. The text has this:
Experimentally obtained drug solubilities are given in the table (all percentages are weight %).

The nature of data set [4]: Solubility and integrity of CLA-1 and CLA-8 in SuBen and LOIB gels (Example 22). Format: physicochemical. Conditions: weight percentage. The procedure:
HPLC assay: Samples were analyzed using a Shimadzu Nexera-i instrument. […] Chromatographic separation was achieved using a gradient of 40 to 100% phase B in 10 min. Ultraviolet detection at 280 nm was used to identify the CT contrast agents. Gel samples were prepared by dilution of 50 μL gel in 1 mL MeCN, which were then diluted 10-fold in MeCN.

The nature of data set [5]: In vivo release of TGFb inhibitors from intratumoral gel depots (Example 32). Conditions: 8 mg/g, 50 μL intratumoral, CT26 tumors, 7 days.
Experimental: Animal handling: For each formulation 50 μL of gel was injected intratumorally in female Balb/c mice with CT26 tumors (Initial tumor volume of approximately 200 mm^3). The mice were sacrificed at different time points and gel samples were collected. The gels were stored at 4° C. until analysis. For each gel, four mice were sacrificed at each timepoint.
Samples were heated to 50° C. and stirred at 600 rpm to promote dissolution. The samples were subsequently filtered through 0.45 μm pore, nylon syringe filters.
HPLC method: Samples were analyzed on a Shimadzu Nexera-i HPLC. […] The solvent system consisted of mobile phase A (5% MeCN, 0.1% TFA in water) and mobile phase B (0.1% TFA in MeCN). Chromatographic separation was achieved using an optimized gradient.
A short description of data set [6]: Co-solubilization of R848 and RepSox in LOIB gel (Example 15). In kind it is physicochemical. Conditions: with 2.4 mg R848. The procedure: The mixture was solubilized using a magnetic stirring for 2 hours at 40-50° C. under continuous visual inspection.
Data set [7] can be described thus: In vitro release of RepSox and Galunisertib from LOIB based gels into PBS (Example 14). Conditions: for cumulative release: after 14 days, 8 mg/gram in 82.5 (% w/w) LOIB gel, 100 μL in 2 ml PBS. The procedure: Following, 100 μL of each gel were injected in duplicates into 2 ml of PBS.
Data set [8] is described as follows: In vitro release of Gardiquimod and Resiquimod from SuBen gels with different co-solvents, HPLC (Example 28). Format: physicochemical. Conditions: 49 days; for in vitro release of Gardiquimod: 1.2 mg/g, PBS 37° C. The procedure: SuBen:GTO:EtOH (60:25:15 (% w/w)) and SuBen:Lipiodol:EtOH (60:25:15 (% w/w)) were prepared by simple mixing and sonication (80° C., 90-120 min) as described in example 19. […] SuBen:GTO:EtOH:PLA (60:25:15:0.5 (% w/w)), SuBen:Ethyl-palmitate:EtOH (60:25:15 (% w/w)), and SuBen:Ethyl-oleate:EtOH (60:25:15 (% w/w)) were prepared by simple mixing and sonication (80° C., 90-120 min) as described in example 19. […] The vials are closed with lids and are incubated at 37° C. At each sampling point, take 1 mL of buffer and place it inside an Eppendorf tube. Then add 1 mL of fresh buffer to replace the taken sample. The samples are analyzed by HPLC. […] For both compounds, the flowrate was 1 mL/min and the column temperature was 40° C.

Setting [9] is: gel composition e.g LOIB 82.5%, SuBen 60%.

For the compound `COc1ccc(CNC(=O)Nc2ncc([N+](=O)[O-])s2)cc1` [AR-A014418], the “Tested solubility in gels” value in data set [1] was found to be 1 mg/g gel.

Turning to `COc1cccc2c1C(=O)c1c(O)c3c(c(O)c1C2=O)C[C@@](O)(C(=O)CO)C[C@@H]3O[C@H]1C[C@H](N)[C@H](O)[C@H](C)O1` [DOX base, doxorubicin], the “release from gels into PBS” value in data set [2] was “released from the gels”.

Turning to `Fc1ccc(Cl)cc1-c1nc(Nc2ccncc2)c2nccnc2n1` [SD-208], the Solubility in data set [3] (gel composition e.g SuBen 60%) and in data set [3] (gel composition e.g SuBen:LOIB 35%/35%) was above 8 mg/g gel throughout.

In data set [3] (gel composition e.g SuBen 60%), `CC(C)Cn1cnc2c(N)nc3ccccc3c21` [Imiquimod] had a Solubility above 4.8 mg/g gel.

Turning to `O=C(OCC1OC(OC(=O)c2ccc(I)cc2)C(OC(=O)c2ccc(I)cc2)[C@@H](OC(=O)c2ccc(I)cc2)[C@@H]1O[C@@H]1OC(COC(=O)c2ccc(I)cc2)[C@H](OC(=O)c2ccc(I)cc2)[C@H](OC(=O)c2ccc(I)cc2)C1OC(=O)c1ccc(I)cc1)c1ccc(I)cc1` (stereo partly drawn) [CLA-8, α,β Lactose octa para-iodobenzoate], in data set [4], the “CLA-8 completely solubilized in LOIB gels” value is given as “up to 10%” and the “CLA-8 completely solubilized in SuBen gels” value is given as “up to 20%”.

As to `Cc1cccc(-c2[nH]ncc2-c2ccc3ncccc3n2)n1` [RepSox], in data set [5], the “in vivo release from gel depot (ranking)” value is on record as “fastest release”. Besides, the Solubility in data set [3] (setting [9]) was above 8 mg/g gel. Further, the “dissolved together with R848 in LOIB:GTO:EtOH (82.5:7.5:10) gel” value in data set [6] stood at 8 mg/g. In data set [7], the cumulative release entry is given as “around 40%”.

As for `Cc1cccc(-c2nn3c(c2-c2ccnc4ccc(C(N)=O)cc24)CCC3)n1` [Galunisertib], the Solubility in data set [3] (setting [9]) was above 8 mg/g gel. For the same compound, the “Tested solubility in gels” value in data set [1] is recorded as 8 mg/g gel. Also, in data set [7], the “solubilized in LOIB-based gel formulations” value is given as at least 8 mg/gram and the cumulative release was 27%.

For the compound `CCNCc1nc2c(N)nc3ccccc3c2n1CC(C)(C)O` [Gardiquimod], the “reduction of Gardiquimod release on substitution of GTO with Lipiodol” value in data set [8] amounted to 6 fold. Also, the “in vitro release of Gardiquimod” value in data set [8] (SuBen:GTO:EtOH (60:25:15) gel) was 52.5%; in data set [8] (SuBen:Lipiodol:EtOH (60:25:15) gel) it was 8.4%. This compound also came in with a Solubility in data set [3] (setting [9]) above 1.5 mg/g gel.

Take `CC1(N)CCN(c2cnc(-c3cccc(Cl)c3Cl)c(N)n2)CC1` [SHP099]: the Solubility in data set [3] (gel composition e.g SuBen 60%) is given as above 1 mg/g gel.

The compound `CCOCc1nc2c(N)nc3ccccc3c2n1CC(C)(C)O` [Resiquimod (R848), Resiquimod] registered a Solubility in data set [3] (setting [9]) above 10 mg/g gel.
